Laboratory results taken from PMC3889641 (Inflammatory bowel diseases, 2013).
Read-outs that look alike come from different tables or passages of the source.

How the values were obtained:
[1] = system: phospho-Smad3(Ser423/425); assay: pSmad3; parameters: species or system human; rat; conditions: legend of Fig. 2C-F; rats 18 mg/kg/d i.p.
[2] = system: Smad3 / phospho-Smad3(Ser423/425); assay: Smad3 phosphorylation; format: in vivo, rat (Sprague-Dawley); conditions: EtOH treated rats, cilengitide 18 mg/kg/d i.p., 42 d
αVβ5 = conditions: read-out: IC50 for αVβ5; stated in Discussion; no reference or method printed; cited from earlier work
[3] = system: Th1, Th2, Th17 and IL-1 related cytokines; format: in vivo, rat (Sprague-Dawley)
αVβ3 integrin = conditions: RGD mimetic peptides, like cilengitide, ref [43], cited from earlier work
collagen = format: in vivo, rat (Sprague-Dawley); conditions: 18 mg/kg/d i.p., 42 d
[4] = system: cultured hepatic stellate cells; conditions: ref [42]; cited from earlier work
[5] = system: LAP-β1 and αVβ3 integrin association in rat colon muscle; conditions: 18 mg/kg/d i.p., 42 d
MPO = format: in vivo, rat (Sprague-Dawley); conditions: TNBS/cilengitide rats, 42 d; TNBS/PBS 6.06 ± 0.30
[6] = system: rat bile duct ligation model of cirrhosis; conditions: ref [42]; cited from earlier work
CD11b = CD11b immunofluorescence; format: in vivo, rat (Sprague-Dawley); conditions: 42 d
[7] = TNBS/cilengitide rats, 42 d, vs controls

cilengitide
pSmad3(Ser423/425) levels (in words) [1]: inhibited by cilengitide
Smad3(Ser423/425) phosphorylation [2]: did not affect phosphorylation
IC50 (αVβ5): 37 nM
IFN-γ level [3, 7]: significantly lower than controls
IL-1α level [3, 7]: significantly lower than controls
IL-1β level [3, 7]: significantly lower than controls
IL-6 level [3, 7]: significantly lower than controls
IL-10 level [3, 7]: significantly lower than controls
TNF-α level [3, 7]: significantly lower than controls
levels of many cytokines ([3]; after 42 d of treatment with cilengitide): not altered
GM-CSF level ([3]; cilengitide, chronic TNBS model (Discussion)): increase the levels of GM-CSF
αVβ3 integrin function at high concentrations (αVβ3 integrin; high concentrations): inhibition of αVβ3 integrin function at the high concentrations
αVβ3 integrin function at lower concentrations (αVβ3 integrin; lower concentrations): activation of αVβ3 integrin at lower concentrations
collagen protein (Sircol assay) (collagen; EtOH/Cilengitide rats, EtOH/PBS 2.5 ± 0.13): 4.5 ± 0.23 ng/mL
collagen protein (Sircol assay) (collagen; TNBS/cilengitide rats, TNBS/PBS 38 ± 1.9): 9.5 ± 0.48 ng/mL
anti-fibrotic effect in vitro [4]: anti-fibrotic
association of LAP-β1 with integrin β3 ([5]; EtOH/cilengitide rats, EtOH/PBS 17.5 ± 1.0): 20.2 ± 1.2 pixels/hpf
association of LAP-β1 and αVβ3 ([5]; TNBS/cilengitide rats, TNBS/PBS 139 ± 8.0): 22.9 ± 1.3 pixels/hpf
MPO activity (MPO): 4.49 ± 0.23 ng/µg protein
fibrosis in vivo [6]: fibrosis worsened
CD11b immunofluorescence (CD11b; EtOH/cilengitide rats, EtOH/PBS 450 ± 23): 585 ± 30 pixels/hpf
CD11b immunofluorescence (CD11b; TNBS/cilengitide rats, TNBS/PBS 550 ± 28): 500 ± 25 pixels/hpf
